These results are taken from US20060013770A1, “Method for screening for compounds as potential sedatives or anxiolytics” (priority 2002, published 2006).

Experiment [1] has as its system HPA axis. The settings on record: at the level of the hypothalamic CRF neurons; cited from earlier work.
Experiment [2] relates to HPA axis. The experiment is described as follows: Effect on plasma corticosterone (HPA axis activity) in mice, radioimmunoassay. In kind it is in vivo, NMRI mice.
Experiment [3] relates to HPA axis. Briefly: Time course of the effect on the HPA axis (plasma ACTH and corticosterone), FIG. 2. In kind it is in vivo. The settings on record: 10 mg/kg. As to the method: One example of measuring the activity of the HPA axis is as follows: The animal Is treated with the NCE and sacrificed within an hour. As the release of ACTH occurs within an hour after the stimulation of the CRF neurons, animals are sacrificed at t=0, 5, 15, 30 and 60 minutes after administration. Trunk blood is taken, serum separated and levels of ACTH is measured in the serum by specific radioimmunoassay. Similarly, the level of glucocortcosteroids are determined at t=0, 30, 60, and 120 minutes (the response occurs somewhat later than ACTH) using a radioimmunoassay.

The mark [4] stands for this setting: i.p., 60 minutes after administration.

Regarding `CN1C(=O)CN=C(c2ccccc2)c2cc(Cl)ccc21` [Diazepam], the “effect on the HPA axis” value in experiment [1] is “slightly stimulate the HPA axis”.

For `Cn1ncnc1COc1nn2c(-c3cc(F)ccc3F)nnc2cc1C(C)(C)C` [L-838,417], the “effect on plasma corticosterone” value in experiment [2] (12.5 mg/kg, 2 h after administration) was “no effects on plasma corticosterone was observed”. For the same compound, the effect on corticosterone entry in experiment [2] (i.p., doses up to 12.5 mg/kg, 60 minutes after administration) is reported as “no effect”.

With `Cc1ccc(-c2nc3ccc(C)cn3c2CC(=O)N(C)C)cc1` [Zolpidem, zolpidem], the “effect on plasma corticosterone at 25 mg/kg compared with 12.5 mg/kg” value in experiment [2] (i.p., 25 mg/kg, 60 minutes after administration) is given as “not further increased”. In experiment [2] (setting [4]), the “dose at which the effect on plasma corticosterone reached a maximum” value is 12.5 mg/kg and the “doses from which plasma corticosterone is significantly increased” value is given as not below 0.5 mg/kg. Besides, the “effect on plasma corticosterone” value in experiment [2] (i.p., 60 minutes after administration, increasing doses) was “significantly and dose-dependently increased plasma corticosterone”. For the same compound, the “time course of plasma ACTH and corticosterone” value in experiment [3] is reported as “The rise in plasma ACTH precedes the rise in corticosterone”.
